Source: patent US20240360104A1, “TRANSCRIPTIONAL ENHANCED ASSOCIATED DOMAIN (TEAD) TRANSCRIPTION FACTOR INHIBITORS AND USES THEREOF” (Dana-Farber Cancer Institute, Inc., priority 2021, published 2024)

How the values were obtained:
NCI-H226 cells = assay: Antiproliferation assay on NCI-H226 cells (CellTiter-Glo, 5-day treatment); format: cell-based; details: Homo sapiens, 120 h, 200 cells/well, 384 plate
Protocol: Example 1. Antiproliferation Assay on NCI-H226 Cells (200 Cells/Well, 384 Plate, 5-Day Treatment)
The compounds of the disclosure were tested for their ability in an antiproliferation assay using NCI-H226 cells (FIG. 6 and FIG. 7). The following table summarizes the IC50 values calculated from the graph of the percent inhibition versus the log of the concentration of representative compounds of the disclosure.
For 2D adherent cell viability experiment, the cells were seeded at 384-well plate (Corning, no. 3570) at the density of 200 cells/well (FIGS. 1-7). The next day, compounds were added using Janus workstation (PerkinElmer). After 5 days treatment, the cell viability was measured by CellTiter-Glo kit (Promega, no. G7570) as the manufacturer recommended.

H2052 cells = assay: Antiproliferation assay using H2052 cells; format: cell-based; details: Homo sapiens, NCI-H2052; H2052 cells (FIG. 2)

SMILES	IC50 (NCI-H226 cells)	IC50 (H2052 cells)
C=CC(=O)N1C[C@@H](Nc2ncccn2)[C@H](OCc2ccc(C(F)(F)F)cc2)C1 (relative stereo) [Compound I-1, 1-(trans-3-(pyrimidin-2-ylamino)-4-(4-(trifluoromethyl)benzyloxy)pyrrolidin-1-yl)prop-2-en-1-one]	36 nM	–
C=CC(=O)N1C[C@@H](NS(=O)(=O)c2c(C)noc2C)[C@H](OCc2ccc(C(F)(F)F)cc2)C1 (relative stereo) [Compound V-5, N-(trans-1-acryloyl-4-(4-(trifluoromethyl)benzyloxy)pyrrolidin-3-yl)-3,5-dimethylisoxazole-4-sulfonamide]	954 nM	–
C=CC(=O)N1C[C@@H](NS(=O)(=O)c2cccc(C#N)c2)[C@H](OCc2ccc(C(F)(F)F)cc2)C1 (relative stereo) [Compound V-6, N-(trans-1-acryloyl-4-(4-(trifluoromethyl)benzyloxy)pyrrolidin-3-yl)-3-cyanobenzenesulfonamide]	543 nM	–
C=CC(=O)N1C[C@@H](n2cc(C(N)=O)nn2)[C@H](OCc2ccc(C(F)(F)F)cc2)C1 (relative stereo) [II-1, 1-(trans-1-acryloyl-4-(4-(trifluoromethyl)benzyloxy)pyrrolidin-3-yl)-1H-1,2,3-triazole-4-carboxamide]	580 nM	–
C=CC(=O)N1C[C@@H](n2cc(C(=O)NC)nn2)[C@H](OCc2ccc(C(F)(F)F)cc2)C1 (relative stereo) [II-2, 1-(trans-1-acryloyl-4-(4-(trifluoromethyl)benzyloxy)pyrrolidin-3-yl)-N-methyl-1H-1,2,3-triazole-4-carboxamide]	461 nM	–
C=CC(=O)N1C[C@@H](n2cc(-c3cncc(N)c3)nn2)[C@H](OCc2ccc(C(F)(F)F)cc2)C1 (relative stereo) [II-5, 1-(trans-3-(4-(5-aminopyridin-3-yl)-1H-1,2,3-triazol-1-yl)-4-(4-(trifluoromethyl)benzyloxy)pyrrolidin-1-yl)prop-2-en-1-one]	172 nM	–
C=CC(=O)N1C[C@@H](n2cc(-c3ccc(N)nc3)nn2)[C@H](OCc2ccc(C(F)(F)F)cc2)C1 (relative stereo) [II-6, 1-(trans-3-(4-(6-aminopyridin-3-yl)-1H-1,2,3-triazol-1-yl)-4-(4-(trifluoromethyl)benzyloxy)pyrrolidin-1-yl)prop-2-en-1-one]	112 nM	–
C=C(F)C(=O)N1C[C@@H](Nc2ncccn2)[C@H](OCc2ccc(C(F)(F)F)cc2)C1 [Compound I-9, 2-fluoro-1-((3R, 4R)-3-(pyrimidin-2-ylamino)-4-(4-(trifluoromethyl)benzyloxy)pyrrolidin-1-yl)prop-2-en-1-one]	23 nM	–
C=CC(=O)N1C[C@@H](NS(=O)(=O)c2cccnc2)[C@H](OCc2ccc(C(F)(F)F)cc2)C1 [Compound V-1]	380 nM	–

Continued, values first:

IC50 (NCI-H226 cells)	IC50 (H2052 cells)	SMILES
377 nM	–	C=CC(=O)N1C[C@@H](n2cc(-c3cccc(C#N)c3)nn2)[C@H](OCc2ccc(C(F)(F)F)cc2)C1 (relative stereo) [II-7, 3-(1-(trans-1-acryloyl-4-(4-(trifluoromethyl)benzyloxy)pyrrolidin-3-yl)-1H-1,2,3-triazol-4-yl)benzonitrile]
193 nM	–	C=CC(=O)N1C[C@@H](n2cc(C3CCN(C)CC3)nn2)[C@H](OCc2ccc(C(F)(F)F)cc2)C1 (relative stereo) [II-19, 1-(trans-3-(4-(1-methylpiperidin-4-yl)-1H-1,2,3-triazol-1-yl)-4-(4-(trifluoromethyl)benzyloxy)pyrrolidin-1-yl)prop-2-en-1-one]
490 nM	–	C=CC(=O)N1C[C@@H](n2ccc(C(=O)NC)n2)[C@H](OCc2ccc(C(F)(F)F)cc2)C1 (relative stereo) [IV-5, 1-(trans-1-acryloyl-4-(4-(trifluoromethyl)benzyloxy)pyrrolidin-3-yl)-N-methyl-1H-pyrazole-3-carboxamide]
99 nM	–	C=CC(=O)N1C[C@@H](n2nc(-c3cnn(C)c3)ccc2=O)[C@H](OCc2ccc(C(F)(F)F)cc2)C1 (relative stereo) [VI-2, 2-(trans-1-acryloyl-4-(4-(trifluoromethyl)benzyloxy)pyrrolidin-3-yl)-6-(1-methyl-1H-pyrazol-4-yl)pyridazin-3(2H)-one]
41 nM	–	C=CC(=O)N1C[C@@H](n2ncc(-c3cnn(C)c3)cc2=O)[C@H](OCc2ccc(C(F)(F)F)cc2)C1 (relative stereo) [VI-3, 2-(trans-1-acryloyl-4-((4-(trifluoromethyl)benzyl)oxy)pyrrolidin-3-yl)-5-(1-methyl-1H-pyrazol-4-yl)pyridazin-3(2H)-one]
168 nM	–	C=CC(=O)N1C[C@@H](OCc2ccc(C(F)(F)F)cc2)[C@H](c2ccc(S(C)(=O)=O)cc2)C1 (relative stereo) [VII-1, 1-(trans-3-(4-(methylsulfonyl)phenyl)-4-(4-(trifluoromethyl)benzyloxy)pyrrolidin-1-yl)prop-2-en-1-one]
189 nM	–	C=CC(=O)N1C[C@@H](Nc2ccncn2)[C@H](OCc2ccc(C(F)(F)F)cc2)C1 (relative stereo) [VII-11, 1-(trans-3-(pyrimidin-4-ylamino)-4-(4-(trifluoromethyl)benzyloxy)pyrrolidin-1-yl)prop-2-en-1-one]
78 nM	142 nM	C=CC(=O)N1C[C@@H](n2ccnn2)[C@H](OCc2ccc(C(F)(F)F)cc2)C1 [II-8]
256 nM	–	C#Cc1ccc(CO[C@@H]2CN(C(=O)C=C)C[C@H]2n2cc(-c3cccnc3)nn2)cc1 [III-6, 1-((3R,4R)-3-(4-ethynylbenzyloxy)-4-(4-(pyridin-3-yl)-1H-1,2,3-triazol-1-yl)pyrrolidin-1-yl)prop-2-en-1-one]
256 nM	–	C=CC(=O)N1C[C@@H](OCc2ccc(C(F)(F)F)cc2)[C@H](c2cccc(S(C)(=O)=O)c2)C1 [VII-2]
